Reference: article PMC3345088 (Journal of Immunology (Baltimore, Md. : 1950), 2012)
Read-outs that look alike come from different tables or passages of the source.

Experiments:
HLA class II alleles = system: HLA class II alleles; parameters: species or system human
[1] = system: CD4+ T cells from LTBI donors; assay: HLA locus restriction, antibody inhibition IFNγ ELISPOT; type: cell-based, human; settings: antibodies 10 µg/ml against HLA-DR, DP or DQ
DRB1*01:01 = DRB1*01:01 (Homo sapiens, UniProt P01903+P01911, A100R/D57E/F55L/F60I/F76Y/I96L/L162R/M171V/P40L/Q125E/R42F/V115G/Y59C); assay: MHC-peptide binding assay

ESAT-6 73–87: 15-mer peptide epitope, residues 73–87 of ESAT-6 (Rv3875) (ARTISEAGQAMASTE; UniProt P9WNK7 73-87, looked up, fragment)
No. donors expressing allele resp. (HLA class II alleles): 3 of 5 | No. donors expressing allele resp. (HLA class II alleles; listed as ESAT-6_72–87): 3 out of 5

ESAT-6 3–17: 15-mer peptide epitope, residues 3–17 of ESAT-6 (Rv3875) (EQQWNFAGIEAAASA; UniProt P9WNK7 3-17, looked up, fragment)
Restricting HLA locus ([1]; donor TU25): DQ, DR

CFP10 72–86: 15-mer peptide epitope, residues 72–86 of CFP10 (Rv3874) (ISTNIRQAGVQYSRA; UniProt P9WNK5 72-86, looked up, fragment)
Restricting HLA locus ([1]; donor TU2): DP, DQ, DR | Restricting HLA locus ([1]; donor TU11): DP, DQ, DR

CFP10 40–54: 15-mer peptide epitope, residues 40–54 of CFP10 (Rv3874) (QGQWRGAAGTAAQAA; UniProt P9WNK5 40-54, looked up, fragment)
Binding to DRB1*01:01 (DRB1*01:01): high affinity | Restricting HLA locus ([1]; donor TU7): DP, DQ, DR | Donors that responded expressing DRB1*01:01 (HLA class II alleles): 3 of 4

CFP10 52–66: 15-mer peptide epitope, residues 52–66 of CFP10 (Rv3874)
No. donors expressing allele resp. (HLA class II alleles): 4 of 5 | No. donors expressing allele resp. (HLA class II alleles; listed as CFP10_52–66): 4 out of 5

Rv2031c 106–120: 15-mer peptide epitope, residues 106–120 of Rv2031c (hspX) (VGADEDDIKATYDKG; UniProt P9WMK1 106-120, looked up, fragment)
Restricting HLA locus ([1]; donor TU2): DP, DR | Restricting HLA locus ([1]; donor TU8): DP, DQ, DR | Restricting HLA locus ([1]; donor TU29): DP, DR
